# US20250179073A1, “TRICYCLIC HETEROCYCLE COMPOUNDS AS IAP ANTAGONISTS” (Ascentage Pharma (Suzhou) Co., Ltd., priority 2022, published 2025)
# Tested on: MDA-MB-231 cells
# Assay: Cell proliferation assay (CellTiter-Glo), MDA-MB-231
# Format: cell-based
# Conditions: Homo sapiens, MDA-MB-231, 72 h, 72 h treatment, Celltiter-Glo luminescence
# Procedure: Example 238: Cell Proliferation Assay
# MDA-MB-231 and EVSA-T cells (10000 cells/well) were plated onto 96-well plates (Corning, Cat #3917) in 95 μL of medium (RPMI-1640 containing 10% FBS and MEM containing 10% FBS, respectively). Compounds with various concentrations ([…]) were added to the wells. After treatment for 72 h, 30 μL of Celltiter-Glo reagent (Promega, Cat #G7573) was added and incubated at room temperature for 15 min, then the luminescent signal was determined using a microplate reader (Biotek, SynergyH1). The inhibitor dose-response curves were analyzed using normalized IC50 regression curve fitting with control based normalization.
row,SMILES,IC50 [nM]
1,"C[C@@H]1CN(CC(=O)N2CC(C)(C)c3c2cc(Cc2ccc(F)cc2)c2nccnc32)[C@@H](CN2CCOC[C@H]2C)CN1 [Example 26, 1-(5-(4-fluorobenzyl)-9,9-dimethyl-8,9-dihydro-7H-pyrrolo[3,2-f]quinoxalin-7-yl)-2-((2R,5R)-5-methyl-2-(((R)-3-methylmorpholino)methyl)piperazin-1-yl)ethan-1-one]",180
2,"Cc1nc(C)n2c3c(cc(Cc4ccc(F)cc4)c12)N(C(=O)CN1C[C@@H](C)NC[C@@H]1CN1CCOC[C@H]1C)CC3(C)C [Compound 124, 1-(4-(4-fluorobenzyl)-1,3,8,8-tetramethyl-7,8-dihydro-6H-imidazo[1,5-a]pyrrolo[2,3-e]pyridin-6-yl)-2-((2R,5R)-5-methyl-2-(((R)-3-methylmorpholino)methyl)piperazin-1-yl)ethan-1-one]",290
3,"C[C@@H]1CN(CC(=O)N2CC(C)(C)c3c2cc(Cc2ccc(F)cc2)c2ncnn32)[C@@H](CN2CC3CC2CO3)CN1 (stereo partly drawn) [Compound 78, 2-((2R,5R)-2-((2-oxa-5-azabicyclo[2.2.1]heptan-5-yl)methyl)-5-methylpiperazin-1-yl)-1-(4-(4-fluorobenzyl)-8,8-dimethyl-7,8-dihydro-6H-pyrrolo[2,3-e][1,2,4]triazolo[1,5-a]pyridin-6-yl)ethan-1-one]",120
4,"C[C@@H]1CN(CC(=O)N2CC(C)(C)c3c2cc(Cc2ccc(F)cc2)c2nc(N4CCNC4=O)nn32)[C@@H](CN2CCOC[C@H]2C)CN1 [Compound 248, 1-(4-(4-fluorobenzyl)-8,8-dimethyl-6-(2-((2R,5R)-5-methyl-2-(((R)-3-methylmorpholino)methyl)piperazin-1-yl)acetyl)-7,8-dihydro-6H-pyrrolo[2,3-e][1,2,4]triazolo[1,5-a]pyridin-2-yl)imidazolidin-2-one]",47
5,"C[C@@H]1CN(CC(=O)N2CC(C)(C)c3c2cc(Cc2c(F)cc(F)cc2F)c2nncn32)[C@@H](CN2CCOC[C@H]2C)CN1 [Compound 164, 1-(8,8-dimethyl-4-(2,4,6-trifluorobenzyl)-7,8-dihydro-6H-pyrrolo[2,3-e][1,2,4]triazolo[4,3-a]pyridin-6-yl)-2-((2R,5R)-5-methyl-2-(((R)-3-methylmorpholino)methyl)piperazin-1-yl)ethan-1-one]",430
6,"CC(C)c1ncc2c(Cc3ccc(F)cc3)cc3c(n12)C(C)(C)CN3C(=O)CN1C[C@@H](C)NC[C@@H]1CN1CCOC[C@H]1C [Example 5, 1-(4-(4-fluorobenzyl)-1-isopropyl-8,8-dimethyl-7,8-dihydro-6H-imidazo[1,5-a]pyrrolo[2,3-e]pyridin-6-yl)-2-((2R,5R)-5-methyl-2-(((R)-3-methylmorpholino)methyl)piperazin-1-yl)ethan-1-one]",160
7,"C[C@@H]1CN(CC(=O)N2CC(C)(C)c3c2cc(Cc2ccc(F)cc2)c2nc(C(=O)O)cn32)[C@@H](CN2CCOC[C@H]2C)CN1 [Compound 117, 4-(4-fluorobenzyl)-8,8-dimethyl-6-(2-((2R,5R)-5-methyl-2-(((R)-3-methylmorpholino)methyl)piperazin-1-yl)acetyl)-7,8-dihydro-6H-imidazo[1,2-a]pyrrolo[2,3-e]pyridine-2-carboxylic acid]",> 10000
8,"C[C@@H]1CN(CC(=O)N2CC(C)(C)c3c2cc(Cc2ccc(F)cc2)c2nn(C(CO)CO)c(=O)n32)[C@@H](CN2CCOC[C@H]2C)CN1 [Compound 268, 2-(1,3-dihydroxypropan-2-yl)-4-(4-fluorobenzyl)-8,8-dimethyl-6-(2-((2R,5R)-5-methyl-2-(((R)-3-methylmorpholino)methyl)piperazin-1-yl)acetyl)-2,6,7,8-tetrahydro-1H-pyrrolo[2,3-e][1,2,4]triazolo[4,3-a]pyridin-1-one]",350
9,"C[C@@H]1CN(CC(=O)N2CC(C)(C)c3c2cc(Cc2ccc(F)cc2)c2c(Cl)cnn32)[C@@H](CN2CCOC[C@H]2C)CN1 [Compound 106, 1-(3-chloro-4-(4-fluorobenzyl)-8,8-dimethyl-7,8-dihydro-6H-pyrazolo[1,5-a]pyrrolo[2,3-e]pyridin-6-yl)-2-((2R,5R)-5-methyl-2-(((R)-3-methylmorpholino)methyl)piperazin-1-yl)ethan-1-one]",390
10,"CC(=O)N1CCN(C[C@H]2CN[C@H](C)CN2CC(=O)N2CC(C)(C)c3c2cc(Cc2ccc(F)cc2)c2nn(CC(C)(C)O)c(=O)n32)[C@H](C)C1 [Compound 282, 6-(2-((2R,5R)-2-(((R)-4-acetyl-2-methylpiperazin-1-yl)methyl)-5-methylpiperazin-1-yl)acetyl)-4-(4-fluorobenzyl)-2-(2-hydroxy-2-methylpropyl)-8,8-dimethyl-2,6,7,8-tetrahydro-1H-pyrrolo[2,3-e][1,2,4]triazolo[4,3-a]pyridin-1-one]",660
11,"C[C@@H]1CN(CC(=O)N2CC(C)(C)c3c2cc(Cc2ccc(F)cc2)c2nn(CC(C)(C)O)c(=O)n32)[C@@H](CN2C[C@H]3C[C@@H]2CO3)CN1 [Compound 284, 6-(2-((2R,5R)-2-(((1R,4R)-2-oxa-5-azabicyclo[2.2.1]heptan-5-yl)methyl)-5-methylpiperazin-1-yl)acetyl)-4-(4-fluorobenzyl)-2-(2-hydroxy-2-methylpropyl)-8,8-dimethyl-2,6,7,8-tetrahydro-1H-pyrrolo[2,3-e][1,2,4]triazolo[4,3-a]pyridin-1-one]",250
12,"C[C@@H]1CN(CC(=O)N2CC(C)(C)c3c2cc(Cc2ccc(F)cc2F)c2nn(CC(C)(C)O)c(=O)n32)[C@@H](CN2CCOC[C@H]2C)CN1 [Compound 274, 4-(2,4-difluorobenzyl)-2-(2-hydroxy-2-methylpropyl)-8,8-dimethyl-6-(2-((2R,5R)-5-methyl-2-(((R)-3-methylmorpholino)methyl)piperazin-1-yl)acetyl)-2,6,7,8-tetrahydro-1H-pyrrolo[2,3-e][1,2,4]triazolo[4,3-a]pyridin-1-one]",9

# Continued, values first:
row,IC50 [nM],SMILES
1,97,"CCc1ncc2c(Cc3ccc(F)cc3)cc3c(n12)C(C)(C)CN3C(=O)CN1C[C@@H](C)NC[C@@H]1CN1CCOC[C@H]1C [Example 4, 1-(1-ethyl-4-(4-fluorobenzyl)-8,8-dimethyl-7,8-dihydro-6H-imidazo[1,5-a]pyrrolo[2,3-e]pyridin-6-yl)-2-((2R,5R)-5-methyl-2-(((R)-3-methylmorpholino)methyl)piperazin-1-yl)ethan-1-one]"
2,360,"C[C@@H]1CN(CC(=O)N2CC(C)(C)c3c2cc(Cc2ccc(F)cc2)c2nn(CC(C)(C)O)c(=O)n32)[C@@H](CN2C[C@@H]3C[C@H]2CO3)CN1 [Compound 283, 6-(2-((2R,5R)-2-(((1S,4S)-2-oxa-5-azabicyclo[2.2.1]heptan-5-yl)methyl)-5-methylpiperazin-1-yl)acetyl)-4-(4-fluorobenzyl)-2-(2-hydroxy-2-methylpropyl)-8,8-dimethyl-2,6,7,8-tetrahydro-1H-pyrrolo[2,3-e][1,2,4]triazolo[4,3-a]pyridin-1-one]"
3,50,"C[C@@H]1CN(CC(=O)N2CC(C)(C)c3c2cc(Cc2ccc(F)cc2)c2cnc(C4CCC4)n32)[C@@H](CN2CCOC[C@H]2C)CN1 [Example 6, 1-(1-cyclobutyl-4-(4-fluorobenzyl)-8,8-dimethyl-7,8-dihydro-6H-imidazo[1,5-a]pyrrolo[2,3-e]pyridin-6-yl)-2-((2R,5R)-5-methyl-2-(((R)-3-methylmorpholino)methyl)piperazin-1-yl)ethan-1-one]"
4,> 10000,"C[C@@H]1CN(CC(=O)N2CC(C)(C)c3c2cc(C(O)c2ccc(F)cc2F)c2ncnn32)[C@@H](CN2CCOC[C@H]2C)CN1 (stereo partly drawn) [Compound 50, 1-(4-((2,4-difluorophenyl)(hydroxy)methyl)-8,8-dimethyl-7,8-dihydro-6H-pyrrolo[2,3-e][1,2,4]triazolo[1,5-a]pyridin-6-yl)-2-((2R,5R)-5-methyl-2-(((R)-3-methylmorpholino)methyl)piperazin-1-yl)ethan-1-one]"
5,270,"C[C@@H]1CN(CC(=O)N2CC(C)(C)c3c2cc(Cc2ccc(F)cc2)c2nc(C(F)(F)F)cn32)[C@@H](CN2CCOCC2(C)C)CN1 [Compound 146, 2-((2R,5R)-2-((3,3-dimethylmorpholino)methyl)-5-methylpiperazin-1-yl)-1-(4-(4-fluorobenzyl)-8,8-dimethyl-2-(trifluoromethyl)-7,8-dihydro-6H-imidazo[1,2-a]pyrrolo[2,3-e]pyridin-6-yl)ethan-1-one]"
6,430,"C[C@@H]1CN(CC(=O)N2CC(C)(C)c3c2cc(Cc2ccc(F)cc2)c2ncnn32)[C@@H](CN2CCN(C(N)=O)C[C@H]2C)CN1 [Compound 215, (R)-4-(((2R,5R)-1-(2-(4-(4-fluorobenzyl)-8,8-dimethyl-7,8-dihydro-6H-pyrrolo[2,3-e][1,2,4]triazolo[1,5-a]pyridin-6-yl)-2-oxoethyl)-5-methylpiperazin-2-yl)methyl)-3-methylpiperazine-1-carboxamide]"
7,200,"C[C@@H]1CN(CC(=O)N2CC(C)(C)c3c2cc(Cc2ccc(F)cc2)c2nnc(C(F)F)n32)[C@@H](CN2CCOC[C@H]2C)CN1 [Compound 157, 1-(1-(difluoromethyl)-4-(4-fluorobenzyl)-8,8-dimethyl-7,8-dihydro-6H-pyrrolo[2,3-e][1,2,4]triazolo[4,3-a]pyridin-6-yl)-2-((2R,5R)-5-methyl-2-(((R)-3-methylmorpholino)methyl)piperazin-1-yl)ethan-1-one]"
8,80,"C[C@@H]1CN(CC(=O)N2CC(C)(C)c3c2cc(Cc2ccc(F)cc2)c2ncnn32)[C@@H](CN2CCNC(=O)[C@H]2C)CN1 [Compound 191, (R)-4-(((2R,5R)-1-(2-(4-(4-fluorobenzyl)-8,8-dimethyl-7,8-dihydro-6H-pyrrolo[2,3-e][1,2,4]triazolo[1,5-a]pyridin-6-yl)-2-oxoethyl)-5-methylpiperazin-2-yl)methyl)-3-methylpiperazin-2-one]"
